In publication PMC12634411, “Phase Ib study of berzosertib, carboplatin, gemcitabine, and pembrolizumab in patients with squamous nonsmall lung cancer (ETCTN 10313)” (The Oncologist, 2025):
Where “and” joins values, the source holds several entries; their conditions need not be identical. Identical values can stand only once.

What was measured:
[1] = system: ATM-deficient NSCLC tumors; design: method as in PMID 26517239; details: combination of ceralasertib (AZD6738) and cisplatin, xenograft models; cited from earlier work
[2] = Gemcitabine (dFdC) and metabolite (dFdU) plasma pharmacokinetics, phase Ib trial; details: geometric mean (SD)
Text: Primary endpoint was the recommended phase II dose (RP2D). Antitumor activity and pharmacokinetics were secondary endpoints. […] Clinicaltrials.gov Identifier: NCT04216316.
(§1) Antitumor activity and pharmacokinetics were secondary endpoints.

[3] = system: newly diagnosed advanced squamous NSCLC; experiment: Antitumor activity (RECIST 1.1), PFS, OS, ORR; format: in vivo, human; details: gemcitabine, pembrolizumab
Text: (§2) Primary endpoint was the recommended phase II dose (RP2D). Antitumor activity and pharmacokinetics were secondary endpoints. Results Twelve patients were enrolled and treated. […] Five of eleven evaluable patients (46%) experienced partial response. […] Clinicaltrials.gov Identifier: NCT04216316.
as §1

[4] = system: p-Chk1 (Chk1, a primary downstream target of ATR); details: reported value, no reference given; cited from earlier work
[5] = system: patients with advanced solid tumors; design: method as in PMID 32568634; details: berzosertib 90-240 mg/m^2 and carboplatin AUC 4-5, 23 patients; cited from earlier work
[6] = system: advanced urothelial carcinoma; design: method as in PMID 34436521; details: gemcitabine and cisplatin plus berzosertib, phase II; cited from earlier work
[7] = Berzosertib plasma pharmacokinetics, phase Ib trial; details: for Cmax: human, plasma, iv, 135 mg/m2, Cmax, geometric mean (SD)
Text: Due to the limited sampling, the most reliable PK parameter assessed was Cmax.

[8] = system: patients with newly diagnosed advanced squamous NSCLC; experiment: Phase Ib safety and tolerability: dose-limiting toxicity, treatment-related adverse events, RP2D; format: in vivo, human; details: four-drug combination, carboplatin Day 1 of 3-week cycle
Text: as §2, §1
Twelve patients were enrolled and treated in phase Ib. […] The former patient passed away at home after having received cycle 1 Day 9 of therapy and causality was based on clinical history. While this event is not typical of the components of this regimen, we conservatively determined the event to be at least possible related to the platinum backbone of therapy and deemed this a DLT. […] Most common treatment-related adverse events (TRAEs) were anemia (83%), neutropenia (83%), leukopenia (83%), thrombocytopenia (58%), ALT increase (50%), lymphopenia (50%), and nausea (50%).

C[C@@H]1COCCN1c1cc(C2([S@](C)(=N)=O)CC2)nc(-c2cc[nH]c3nccc2-3)n1 [ceralasertib]
effect on ATM-deficient NSCLC tumors [1]: near-complete resolution

Nc1ccn([C@@H]2O[C@H](CO)[C@@H](O)C2(F)F)c(=O)n1 [gemcitabine]
dFdC Cmax ([2]; Dose level 1, gemcitabine 800 mg/m^2, N = 6, plasma): 9.29 (1.51) mg/L | dFdC Cmax ([2]; Dose level −1, gemcitabine 800 mg/m^2, N = 6, plasma): 11.2 (1.12) mg/L | dFdC Cmax ([2]; Total N = 12, gemcitabine 800 mg/m^2, plasma): 10.2 (1.35) mg/L

CNCc1ccc(-c2cc(-c3nc(-c4ccc(S(=O)(=O)C(C)C)cc4)cnc3N)on2)cc1 [Berzosertib]
ORR (partial response) ([3]; 5 of 11 evaluable patients, 95% CI: 16.7%, 76.6%, RECIST 1.1, combination with carboplatin): 46% and 45.5% | stable disease ([3]; 6 of 11 evaluable patients, 95 CI: 23.4%, 83.3%, combination with carboplatin): 54.5% | median PFS ([3]; 12 patients, 95% CI: 3, 13, median follow-up 17 months, combination with carboplatin): 9 months | median OS ([3]; 12 patients, 95% CI: 3, not reached, median follow-up 17 months, combination with carboplatin): 15 months | human equivalent p-Chk1 IC50 [4]: approximately 110 ng/mL | events of grade ≥3 nausea and vomiting [5]: no events | grade ≥3 neutropenia [5]: 22% | survival with the addition of berzosertib vs gemcitabine and cisplatin alone [6]: inferior survival | Cmax/Dose ([7]; Dose level 1, 135 mg/m^2, N = 6, Day 2 of cycle 1, geometric mean (SD)): 5.18 (1.34) µg/L/mg/m^2 | Cmax/Dose ([7]; Dose level −1, 135 mg/m^2, N = 6, Day 2 of cycle 1, geometric mean (SD)): 4.74 (1.31) µg/L/mg/m^2 | Cmax/Dose ([7]; Total N = 12, Day 2 of cycle 1, geometric mean (SD)): 4.99 (1.31) µg/L/mg/m^2 | Cmax ([7]; Dose level 1, 135 mg/m^2 IV, N = 6, Day 2 of cycle 1, plasma): 700 ng/mL | Cmax ([7]; Dose level −1, 135 mg/m^2 IV, N = 6, Day 2 of cycle 1, plasma): 640 ng/mL | Cmax ([7]; Total N = 12, 135 mg/m^2 IV, Day 2 of cycle 1, plasma): 669 ng/mL

N.N.O=C([O-])C1(C(=O)[O-])CCC1.[Pt+2] [carboplatin]
recommended phase II dose (RP2D) [8]: 4 AUC
